Patent US12403184B2, “Compositions and methods for treating neurodegenerative disroders” (priority 2018, dated 2025)
Where no end group is shown, it is not given here.

Assays:
ATAD3A = target: T1, ATAD3A (Mus musculus, UniProt Q925I1); experiment: ATAD3A dimerization by western blot, Neuro2A cells; assay type: cell-based; details: Neuro2a cells exposed to 3-NP, non-reducing conditions
T1 construct: endogenous in cells; host or cells: Neuro2A cells
T1 sequence (Q925I1 1-591): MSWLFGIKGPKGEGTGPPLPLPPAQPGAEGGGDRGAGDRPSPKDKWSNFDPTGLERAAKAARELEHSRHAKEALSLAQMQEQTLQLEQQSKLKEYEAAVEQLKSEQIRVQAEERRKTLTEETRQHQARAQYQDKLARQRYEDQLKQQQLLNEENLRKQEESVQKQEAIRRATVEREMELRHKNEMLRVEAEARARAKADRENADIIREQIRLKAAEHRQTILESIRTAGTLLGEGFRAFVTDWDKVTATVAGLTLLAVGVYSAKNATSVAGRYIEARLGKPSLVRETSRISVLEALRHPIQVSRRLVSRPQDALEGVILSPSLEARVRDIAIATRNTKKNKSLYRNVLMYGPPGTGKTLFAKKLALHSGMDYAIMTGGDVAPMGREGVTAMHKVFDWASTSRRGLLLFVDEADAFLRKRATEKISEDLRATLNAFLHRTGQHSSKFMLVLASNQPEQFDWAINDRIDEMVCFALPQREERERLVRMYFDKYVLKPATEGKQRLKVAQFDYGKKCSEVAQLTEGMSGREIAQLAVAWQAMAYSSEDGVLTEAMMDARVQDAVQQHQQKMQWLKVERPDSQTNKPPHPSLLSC
Method: To analyze dimerization of ATAD3A under non-reducing conditions, the cells or tissues were harvested and lysed with total lysates buffer. An equal amount of proteins was subject to 8% SDS-PAGE analysis in the presence or absence of β-mercaptoethanol (β-ME). For in vitro BMH crosslinking, the cell lysates were incubated with 1 mM BMH at r.t. for up to 25 min and quenched with 0.1% β-ME, followed by SDS-PAGE analysis. For in-vivo crosslinking, the cells were treated with cell-permeable crosslinker BMH (1 mM) for 20 min at 37° C. After crosslinking, the cells were quenched in PBS with 0.1% β-ME. For DSP crosslinking, the cells were treated with cell-permeable crosslinker for 5 min at 37° C., followed by quenching and washing with 10 mM Glycine in PBS. For formaldehyde (FA) crosslinking, the cells were incubated with PBS buffer containing 1% FA for 20 min at r.t., and the crosslinking reaction was terminated by washing in PBS containing 100 mM glycine. The cells were then lysed and subject to 8% SDS-PAGE analysis. For DTSSP crosslinking of proteins in mitochondrial fractions, isolated mitochondria samples were suspended in the mitochondrial lysis buffer (250 mM sucrose, 20 mM HEPES-NaOH, pH 7.5, 10 mM KCl, 1.5 mM MgCl2, 1 mM EDTA, 1 mM EGTA and protease inhibitor). An equal amount of crude mitochondria was incubated at 30° C. in the presence of 0.5 mM DTSSP. […]

Drp1/ATAD3A = target: T2, Drp1/ATAD3A (Mus musculus, UniProt Q925I1); experiment: Immunoprecipitation of Drp1/ATAD3A binding in mouse striatal cells; assay type: cell-based
T2 construct: The total lysates of cells or mouse striatum were subject to IP analysis; endogenous in cells; host or cells: HdhQ7 / HdhQ111 mouse striatal cells; wild-type mouse striatal cells exposed to 3-NP
T2 sequence (Q925I1 2-591 limits assumed): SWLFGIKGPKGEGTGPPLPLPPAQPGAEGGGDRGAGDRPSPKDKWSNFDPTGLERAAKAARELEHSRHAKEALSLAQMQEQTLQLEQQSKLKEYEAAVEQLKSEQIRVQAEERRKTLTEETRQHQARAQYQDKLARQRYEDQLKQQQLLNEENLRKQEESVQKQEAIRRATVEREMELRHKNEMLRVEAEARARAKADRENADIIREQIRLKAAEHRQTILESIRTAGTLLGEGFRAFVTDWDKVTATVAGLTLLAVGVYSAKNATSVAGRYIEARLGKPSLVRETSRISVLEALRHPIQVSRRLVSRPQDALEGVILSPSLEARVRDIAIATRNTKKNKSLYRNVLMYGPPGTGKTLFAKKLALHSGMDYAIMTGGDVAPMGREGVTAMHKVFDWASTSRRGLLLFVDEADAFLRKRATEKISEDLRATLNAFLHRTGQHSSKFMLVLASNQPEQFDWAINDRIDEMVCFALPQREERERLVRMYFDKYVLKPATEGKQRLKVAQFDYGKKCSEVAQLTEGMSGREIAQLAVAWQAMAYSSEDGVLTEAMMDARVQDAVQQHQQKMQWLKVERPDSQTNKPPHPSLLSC
Method: Cells and mouse brain tissues were harvested and lysed in total lysis buffer ([…], pH 7.9, […], […], 1% Triton X-100, and protease inhibitor cocktail) for 30 mins on ice and centrifuged at 12,000×g for 10 min at 4° C. The supernatants were incubated with the indicated primary antibodies or control IgG (sc-2025 and sc-2027, Santa Cruz Biotechnology) overnight at 4° C., followed by incubation with protein A/G beads (sc-2003, Santa Cruz Biotechnology) for 2 h at 4° C. The immunoprecipitates were washed with lysis buffer three times for a total of 30 min and then subject to WB analysis.

Compound | ATAD3A dimerization (ATAD3A) | interaction between Drp1 and ATAD3A (Drp1/ATAD3A; wildtype mouse striatal cells, 3-NP 5 mM for 4 h) | binding of Drp1/ATAD3A (Drp1/ATAD3A; HdhQ111 cells, peptide 1 μM/day for 4 days, vs TAT)
O=C(O)CC[N+](=O)[O-] [3-NP, 3-nitropropionic acid, reference compound] | increased | induced | 
YGRKKRRQRRR-GG-EERRKT-NH2 (YGRKKRRQRRRGGEERRKT-NH2) [DA2, peptide from ATAD3A coiled-coil region homologous to Drp1, conjugated to TAT47-57] |  |  | a trend toward inhibition
